Data set [1] deals with CYP3A4 (Homo sapiens, UniProt P08684). The data set can be described thus: Cytochrome P450 (CYP450) Inhibition Assay, CYP3A4 (Vivid fluorescence, BOMCC substrate). To be noted: human, P450 Baculosomes (recombinant CYP3A4), probe BOMCC (Vivid substrate).
The test system of data set [2] is sodium channel. In words: Guanidine influx assay (14C-guanidine radiotracer flux, in vitro). The data set is classed as cell-based, human or rat. To be noted: guanidine influx assay using a known cell line that expresses a sodium channel; activity level class. The method in brief: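 Sodium channel block is measured as reduced 14C-guanidine uptake in cells stably expressing human or rat channels, stimulated with aconitine. Potency is given as IC50 from a four-parameter curve.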

CYP3A4, sequence (P08684 whole entry): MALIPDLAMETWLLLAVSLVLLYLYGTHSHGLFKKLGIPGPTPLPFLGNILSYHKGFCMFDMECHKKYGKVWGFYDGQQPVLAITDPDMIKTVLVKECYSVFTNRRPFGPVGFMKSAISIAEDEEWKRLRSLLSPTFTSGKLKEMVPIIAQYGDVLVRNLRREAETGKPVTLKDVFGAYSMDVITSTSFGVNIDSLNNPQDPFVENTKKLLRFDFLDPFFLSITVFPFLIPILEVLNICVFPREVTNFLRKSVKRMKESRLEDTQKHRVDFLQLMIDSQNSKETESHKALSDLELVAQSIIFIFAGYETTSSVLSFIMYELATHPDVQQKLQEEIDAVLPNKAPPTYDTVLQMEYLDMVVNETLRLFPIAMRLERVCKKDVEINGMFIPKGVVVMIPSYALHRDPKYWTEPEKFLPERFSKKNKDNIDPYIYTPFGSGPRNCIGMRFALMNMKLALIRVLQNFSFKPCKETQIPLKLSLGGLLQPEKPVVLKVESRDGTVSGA

With `Cc1noc2cc3c(cc12)C1(CO3)C(=O)N(Cc2ccc(-c3ccno3)cc2)c2ccccc21` (stereo not drawn) [Example 4.99, 1′-(4-isoxazol-5-ylbenzyl)-3-methylspiro[furo[3,2-f][1,2]benzisoxazole-5,3′-indol]-2′(1′H)-one], the melting point – broadly, the temperature, or range, at which the solid turns liquid – is 192 to 194 °C. Further, the inhibition (in general, the percentage by which the read-out fell short of the control) at 10 µM in data set [1] is less than 50%. The IC50 (as a rule, the concentration that inhibits the measured activity by half) in data set [2] was 100 to 1000 nM.

`O=C1N(Cc2ccc(F)cn2)c2ccccc2C12COc1cc3c(cc12)OCCO3` (stereo not drawn) [Example 4.100, 1-[(5-fluoropyridin-2-yl)methyl]-2,3-dihydrospiro[furo[2,3-g][1,4]benzodioxine-8,3′-indol]-2′(1′H)-one] registered a melting point of 174 to 176 °C. Besides, the inhibition at 10 µM in data set [1] is less than 50%. In addition, the IC50 in data set [2] fell in the range of 1 to 100 nM.

`O=C1N(Cc2ncccc2F)c2ccccc2C12COc1cc3c(cc12)OCCO3` (stereo not drawn) [Example 4.101, 1-[(3-fluoropyridin-2-yl)methyl]-2,3-dihydrospiro[furo[2,3-g][1,4]benzodioxine-8,3′-indol]-2′(1′H)-one] displayed a melting point of 247 to 249 °C. In data set [1], the inhibition at 10 µM is less than 50%. Also, the IC50 in data set [2] was in the range of 1 to 100 nM.

Compound `O=C1N(Cc2ccccn2)c2cccc(-c3cnc4ccccc4c3)c2C12COc1cc3c(cc12)OCCO3` (stereo not drawn) [Example 4.102, 1-(pyridin-2-ylmethyl)-4′-quinolin-3-yl-2,3-dihydrospiro[furo[2,3-g][1,4]benzodioxine-8,3′-indol]-2′(1′H)-one] registered a melting point of 228 to 230 °C. Besides, the inhibition at 10 µM in data set [1] is greater than 50%. The IC50 in data set [2] is 100 to 1000 nM.

`O=C1N(Cc2ncc(F)cc2F)c2ccccc2C12COc1cc3c(cc12)OCCO3` (stereo not drawn) [Example 4.104, 1-[(3,5-difluoropyridin-2-yl)methyl]-2,3-dihydrospiro[furo[2,3-g][1,4]benzodioxine-8,3′-indol]-2′(1′H)-one]: the melting point is 220 to 222 °C. Besides, in data set [1], the inhibition at 10 µM was less than 50%. The IC50 in data set [2] is 1 to 100 nM.

As to `N#Cc1ccc2c(c1)OCC21C(=O)N(Cc2ccccn2)c2ccccc21` (stereo not drawn) [Example 4.105, 2′-oxo-1′-(pyridin-2-ylmethyl)-1′,2′-dihydrospiro[1-benzofuran-3,3′-indole]-6-carbonitrile], the melting point fell in the range of 151 to 153 °C. For the same compound, the inhibition at 10 µM in data set [1] is less than 50%. Besides, the IC50 in data set [2] lay in the range of 1000 to 10000 nM.

In the case of `N#Cc1cccc(CN2C(=O)[C@@]3(COc4cc5c(cc43)OCCO5)c3ccccc32)c1` [Example 4.106, 3-{[(8S)-2′-oxo-2,3-dihydrospiro[furo[2,3-g][1,4]benzodioxine-8,3′-indol]-1′(2′H)-yl]methyl}benzonitrile], the melting point lay in the range of 94 to 96 °C. For the same compound, the inhibition at 10 µM in data set [1] was less than 50%. Further, the half-maximal inhibitory concentration (IC50) in data set [2] was in the range of 1 to 100 nM.

`O=C1N(Cc2ccc(F)cn2)c2ccccc2[C@]12COc1cc3c(cc12)OCCO3` [Example 4.107, (8S)-1′-[(5-fluoropyridin-2-yl)methyl]-2,3-dihydrospiro[furo[2,3-g][1,4]benzodioxine-8,3′-indol]-2′(1′H)-one] came in with a melting point of 210 to 212 °C. Also, the inhibition at 10 µM in data set [1] is less than 50%. In data set [2], the IC50 was in the range of 1 to 100 nM.

Compound `O=C1N(Cc2ncccc2F)c2ccccc2[C@]12COc1cc3c(cc12)OCCO3` [Example 4.108, (8S)-1′-[(3-fluoropyridin-2-yl)methyl]-2,3-dihydrospiro[furo[2,3-g][1,4]benzodioxine-8,3′-indol]-2′(1′H)-one] showed a melting point of 125 to 126 °C. The inhibition at 10 µM in data set [1] is less than 50%. The IC50 in data set [2] was in the range of 1 to 100 nM.

On to `O=C1N(Cc2cc(F)ccn2)c2ccccc2C12COc1cc3c(cc12)OCCO3` (stereo not drawn) [Example 4.110, 1-[(4-fluoropyridin-2-yl)methyl]-2,3-dihydrospiro[furo[2,3-g][1,4]benzodioxine-8,3′-indol]-2′(1′H)-one], for which the melting point lay within 228 to 231 °C. Further, the inhibition at 10 µM in data set [1] was less than 50%. Further, the IC50 in data set [2] lay within 1 to 100 nM.

`O=C1N(Cc2ccccc2C(F)(F)F)c2ccccc2C12COc1cc3c(cc12)OCCO3` (stereo not drawn) [Example 4.113, 1′-[2-(trifluoromethyl)benzyl]-2,3-dihydrospiro[furo[2,3-g][1,4]benzodioxine-8,3′-indol]-2′(1′H)-one]: the melting point lay within 207 to 208 °C. The inhibition at 10 µM in data set [1] is less than 50%. Further, the IC50 in data set [2] lay within 1 to 100 nM.

As for `O=C1N(Cc2ccccc2C(F)(F)F)c2ccccc2[C@@]12COc1cc3c(cc12)OCCO3` [Example 4.114, (8R)-1′-[2-(trifluoromethyl)benzyl]-2,3-dihydrospiro[furo[2,3-g][1,4]benzodioxine-8,3′-indol]-2′(1′H)-one], the melting point is 137 to 138 °C. In addition, the inhibition at 10 µM in data set [1] was less than 50%. In data set [2], the IC50 fell in the range of 100 to 1000 nM.

As to `O=C1N(Cc2ccccc2C(F)(F)F)c2ccccc2[C@]12COc1cc3c(cc12)OCCO3` [Example 4.116, (8S)-1′-[2-(trifluoromethyl)benzyl]-2,3-dihydrospiro[furo[2,3-g][1,4]benzodioxine-8,3′-indol]-2′(1′H)-one], the melting point is 137 to 138 °C. In data set [1], the inhibition at 10 µM is less than 50%. In addition, in data set [2], the IC50 is 1 to 100 nM.

For the compound `O=C1N(Cc2ccc3nsnc3c2)c2ccccc2C12COc1cc3c(cc12)OCCO3` (stereo not drawn) [Example 4.118, 1′-(2,1,3-benzothiadiazol-5-ylmethyl)-2,3-dihydrospiro[furo[2,3-g][1,4]benzodioxine-8,3′-indol]-2′(1′H)-one], the melting point lay within 189 to 191 °C. The inhibition at 10 µM in data set [1] is greater than 50%. Also, the IC50 in data set [2] was 1 to 100 nM.

For the compound `O=C1N(Cc2nc3ccccc3s2)c2ccccc2C12COc1cc3c(cc12)OCCO3` (stereo not drawn) [Example 4.119, 1-(1,3-benzothiazol-2-ylmethyl)-2,3-dihydrospiro[furo[2,3-g][1,4]benzodioxine-8,3′-indol]-2′(1′H)-one], the melting point lay within 164 to 166 °C. Besides, the inhibition at 10 µM in data set [1] is greater than 50%. The IC50 in data set [2] was 1 to 100 nM.

`Cn1c(CN2C(=O)C3(COc4cc5c(cc43)OCCO5)c3ccccc32)nc2ccccc21` (stereo not drawn) [Example 4.120, 1′-[(1-methyl-1H-benzimidazol-2-yl)methyl]-2,3-dihydrospiro[furo[2,3-g][1,4]benzodioxine-8,3′-indol]-2′(1′H)-one] showed a melting point greater than 240 °C. In addition, in data set [1], the inhibition at 10 µM is greater than 50%. In addition, the IC50 in data set [2] is 1 to 100 nM.

For `CC(C)c1nc(CN2C(=O)C3(COc4cc5c(cc43)OCCO5)c3ccccc32)cs1` (stereo not drawn) [Example 4.121, 1′-{[2-(1-methylethyl)-1,3-thiazol-4-yl]methyl}-2,3-dihydrospiro[furo[2,3-g][1,4]benzodioxine-8,3′-indol]-2′(1′H)-one], the melting point is 60 to 63 °C. Besides, the inhibition at 10 µM in data set [1] is greater than 50%. In data set [2], the IC50 was in the range of 1 to 100 nM.

As for `O=C1N(Cc2ccc3nonc3c2)c2ccccc2C12COc1cc3c(cc12)OCCO3` (stereo not drawn) [Example 4.122, 1-(2,1,3-benzoxadiazol-5-ylmethyl)-2,3-dihydrospiro[furo[2,3-g][1,4]benzodioxine-8,3′-indol]-2′(1′H)-one], the melting point is 164 to 166 °C. Moreover, in data set [1], the inhibition at 10 µM is greater than 50%. Further, the IC50 in data set [2] was in the range of 1 to 100 nM.

Regarding `O=C1N(Cc2ccccn2)c2ccccc2C12COc1ccc3nonc3c12` (stereo not drawn) [Example 4.124, 1′-(pyridin-2-ylmethyl)spiro[furo[3,2-e][2,1,3]benzoxadiazole-8,3′-indol]-2′(1′H)-one], the melting point lay in the range of 180 to 182 °C. For the same compound, in data set [1], the inhibition at 10 µM is less than 50%. For the same compound, the half-inhibitory concentration (IC50) in data set [2] lay in the range of 1 to 100 nM.

Consider `O=C1N(Cc2cccnc2)c2ccccc2C12COc1ccc3nonc3c12` (stereo not drawn) [Example 4.125, 1-(pyridin-3-ylmethyl)spiro[furo[3,2-e][2,1,3]benzoxadiazole-8,3′-indol]-2′(1′H)-one], for which the melting point was 230 to 232 °C. Besides, the inhibition at 10 µM in data set [1] is less than 50%. Moreover, the IC50 in data set [2] is 1000 to 10000 nM.

For the compound `O=C1N(Cc2ccccn2)c2ccccc2C12COc1c(Cl)cc3c(c12)OCCO3` (stereo not drawn) [Example 4.126, 6-chloro-1′-(pyridin-2-ylmethyl)-2,3-dihydrospiro[furo[3,2-f][1,4]benzodioxine-9,3′-indol]-2′(1′H)-one], the melting point fell in the range of 197 to 199 °C. In addition, the inhibition at 10 µM in data set [1] was greater than 50%. Moreover, the IC50 in data set [2] lay in the range of 1000 to 10000 nM.

Regarding `O=C1N(C[C@H]2CCCO2)c2ccccc2C12COc1cc3c(cc12)CCCC3` (stereo partly drawn) [Example 4.129, 1-[(2R)-tetrahydrofuran-2-ylmethyl]-5′,6′,7′,8′-tetrahydrospiro[indole-3,3′-naphtho[2,3-b]furan]-2(1′H)-one], the melting point lay within 139 to 141 °C. Further, the inhibition at 10 µM in data set [1] was less than 50%. For the same compound, in data set [2], the IC50 fell in the range of 1000 to 10000 nM.

The compound `O=C1N(Cc2ccccn2)c2ccccc2C12COc1cc3nccnc3cc12` (stereo not drawn) [Example 4.130, 1′-(pyridin-2-ylmethyl)spiro[furo[2,3-g]quinoxaline-8,3′-indol]-2′(1′H)-one] yielded a melting point of 232 to 233 °C. For the same compound, the inhibition at 10 µM in data set [1] was less than 50%. Moreover, the IC50 in data set [2] is 1000 to 10000 nM.

With `COc1ncc(CN2C(=O)C3(COc4cc5c(cc43)CCO5)c3ccccc32)cn1` (stereo not drawn) [Example 5, 1-[(2-methoxypyrimidin-5-yl)methyl]-5,6-dihydrospiro[benzo[1,2-b:5,4-b′]difuran-3,3′-indol]-2′(1′H)-one], the melting point lay in the range of 203 to 204 °C. Moreover, in data set [1], the inhibition at 10 µM is less than 50%. In addition, the IC50 in data set [2] was 100 to 1000 nM.

For the compound `CC(C)CCN1C(=O)[C@]2(COc3cc4c(cc32)CCO4)c2ccccc21` [Example 5.2, (3R)-1-(3-methylbutyl)-5,6-dihydrospiro[benzo[1,2-b:5,4-b′]difuran-3,3′-indol]-2′(1′H)-one], the melting point fell in the range of 86 to 87 °C. For the same compound, the inhibition at 10 µM in data set [1] is greater than 50%. Besides, in data set [2], the IC50 fell in the range of 1000 to 10000 nM.

The record behind these values is patent US8263606B2 (Xenon Pharmaceuticals Inc., priority 2008, dated 2012).
